In patent US12702693B2, “Treatment of cystic fibrosis by delivery of codon-optimized mRNA encoding CFTR” (Translate Bio, Inc., priority 2017, dated 2026):

Assays:
[1] = available data; cited from earlier work
[2] = tested on: human bronchial epithelial cells; assay: Ussing chamber assay of Forskolin-induced chloride channel activity; format: cell-based; details: all groups
Experimental: The changes in chloride transport across the bronchial epithelial cell membrane was measured by short circuit current output in an Ussing epithelial voltage clamp apparatus (i.e., a Ussing chamber). Specifically, using an established Ussing Chamber procedure (Charles River Laboratories), hCFTR mRNA encapsulated in a liposome comprising ICE, DOPE, and a PEG-modified lipid was incubated for 2 or 4 hours on the apical (mucosal) or basolateral (serosal) sides, or both sides, of human bronchial epithelial cells. A buffer blank also was included as a control, for example, to assess chloride transport by endogenous CFTR in the cells. Next, Forskolin-induced chloride channel activity was measured using the Ussing chamber assay.

| SMILES | mutagenicity/genotoxicity data [1] | chloride activity after addition of CFTR inhibitor [2] |
| --- | --- | --- |
| CCC(=O)O [propionic acid] | negative |  |
| CC(C)CCC[C@@H](C)[C@H]1CC[C@H]2[C@@H]3CC=C4C[C@@H](O)CC[C@]4(C)[C@H]3CC[C@]12C [cholesterol] | negative |  |
| O=C(O)c1ccc(/C=C2\SC(=S)N(c3cccc(C(F)(F)F)c3)C2=O)cc1 [CFTR inhibitor-172] |  | inhibited |
| c1c[nH]cn1 [imidazole] | negative |  |
